What was measured:
HeLa cells = experiment: cells; assay type: cell-based
hGSK3b = biological target: T1, hGSK3b (Homo sapiens, UniProt P49841); experiment: Cerep LANCE kinase assay hGSK3b (S1 assay 34); assay type: biochemical; conditions: for hGSK3b LANCE IC50/EC50: assay number 34
T1 construct: purchased Cerep (LANCE kinase assay platform, contract assay)

hKDR = biological target: T2, hKDR (Homo sapiens, UniProt P35968); experiment: Cerep LANCE kinase assay hKDR (S1 assay 32); assay type: biochemical; conditions: for hKDR LANCE IC50/EC50: assay number 32
T2 construct: purchased Cerep (LANCE kinase assay platform, contract assay)
T2 sequence (P35968 20-1356): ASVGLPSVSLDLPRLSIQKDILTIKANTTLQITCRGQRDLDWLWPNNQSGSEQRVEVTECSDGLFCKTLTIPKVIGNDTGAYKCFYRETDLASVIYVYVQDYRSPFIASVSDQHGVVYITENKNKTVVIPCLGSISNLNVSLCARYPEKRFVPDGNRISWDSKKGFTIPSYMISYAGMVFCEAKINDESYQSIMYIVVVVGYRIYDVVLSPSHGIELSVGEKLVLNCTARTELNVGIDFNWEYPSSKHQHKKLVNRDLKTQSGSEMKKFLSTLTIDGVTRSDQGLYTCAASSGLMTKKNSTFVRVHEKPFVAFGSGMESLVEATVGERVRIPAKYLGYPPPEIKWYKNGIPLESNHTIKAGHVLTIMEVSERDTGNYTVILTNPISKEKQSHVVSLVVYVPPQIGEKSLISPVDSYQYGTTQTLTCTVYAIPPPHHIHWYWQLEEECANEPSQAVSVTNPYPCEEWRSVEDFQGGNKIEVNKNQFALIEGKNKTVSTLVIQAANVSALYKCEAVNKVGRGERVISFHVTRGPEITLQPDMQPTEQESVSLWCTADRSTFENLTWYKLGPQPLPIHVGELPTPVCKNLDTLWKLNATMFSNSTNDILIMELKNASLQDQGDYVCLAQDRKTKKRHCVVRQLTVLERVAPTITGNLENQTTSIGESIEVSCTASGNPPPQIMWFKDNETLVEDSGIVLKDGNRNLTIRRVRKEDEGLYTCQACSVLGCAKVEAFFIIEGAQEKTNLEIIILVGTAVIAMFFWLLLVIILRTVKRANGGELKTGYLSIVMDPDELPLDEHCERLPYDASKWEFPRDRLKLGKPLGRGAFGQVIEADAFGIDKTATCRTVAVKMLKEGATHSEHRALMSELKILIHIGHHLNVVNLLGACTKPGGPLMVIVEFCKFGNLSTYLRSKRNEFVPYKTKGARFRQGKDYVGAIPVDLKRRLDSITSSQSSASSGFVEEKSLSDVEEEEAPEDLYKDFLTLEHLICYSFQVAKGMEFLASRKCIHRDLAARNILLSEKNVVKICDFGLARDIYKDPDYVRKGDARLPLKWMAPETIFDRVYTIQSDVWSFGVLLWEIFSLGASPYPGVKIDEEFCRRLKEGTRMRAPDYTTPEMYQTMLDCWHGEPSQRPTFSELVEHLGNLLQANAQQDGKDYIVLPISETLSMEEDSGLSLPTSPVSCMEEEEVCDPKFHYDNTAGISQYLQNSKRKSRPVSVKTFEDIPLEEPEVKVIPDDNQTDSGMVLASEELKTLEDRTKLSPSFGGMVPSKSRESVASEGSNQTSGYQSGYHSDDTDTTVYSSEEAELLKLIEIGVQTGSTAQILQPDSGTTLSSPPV

hp70S6K1 (RPS6KB1) = biological target: T3, hp70S6K1 (RPS6KB1) (Homo sapiens, UniProt P23443); experiment: Cerep LANCE kinase assay hp70S6K1 (S1 assay 31); assay type: biochemical; conditions: for hp70S6K1 LANCE IC50/EC50: assay number 31
T3 construct: purchased Cerep (LANCE kinase assay platform, contract assay)
T3 sequence (P23443 whole entry): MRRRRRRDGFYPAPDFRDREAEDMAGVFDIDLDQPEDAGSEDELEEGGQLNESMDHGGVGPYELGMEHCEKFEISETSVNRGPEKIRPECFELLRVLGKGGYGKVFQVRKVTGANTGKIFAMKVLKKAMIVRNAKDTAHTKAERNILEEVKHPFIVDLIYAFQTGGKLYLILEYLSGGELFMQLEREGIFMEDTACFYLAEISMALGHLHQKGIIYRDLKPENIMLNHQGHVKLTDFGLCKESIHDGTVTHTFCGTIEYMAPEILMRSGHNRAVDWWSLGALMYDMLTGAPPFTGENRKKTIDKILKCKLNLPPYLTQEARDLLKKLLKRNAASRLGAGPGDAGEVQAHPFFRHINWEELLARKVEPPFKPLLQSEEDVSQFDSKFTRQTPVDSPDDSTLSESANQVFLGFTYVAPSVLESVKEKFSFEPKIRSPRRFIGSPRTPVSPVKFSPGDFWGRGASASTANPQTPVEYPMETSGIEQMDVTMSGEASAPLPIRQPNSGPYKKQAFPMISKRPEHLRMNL

[1] = test system: alkaline phosphatase (ALP) activity in C2C12 cells; assay type: cell-based; conditions: concentration response; for WntCondMedia_Alk Phos C2C12 IC50/EC50: assay number 6
[2] = test system: nuclear β-catenin in C2C12 cells; experiment: cells; assay type: cell-based; conditions: concentration response; for WntCondMedia_bCatenin C2C12 IC50/EC50: assay number 5
hFLT3 = biological target: T4, hFLT3 (Homo sapiens, UniProt P36888); experiment: Cerep LANCE kinase assay hFLT3 (S1 assay 35); assay type: biochemical; conditions: for hFLT3 LANCE IC50/EC50: assay number 35
T4 construct: purchased Cerep (LANCE kinase assay platform, contract assay)
T4 sequence (P36888 27-993): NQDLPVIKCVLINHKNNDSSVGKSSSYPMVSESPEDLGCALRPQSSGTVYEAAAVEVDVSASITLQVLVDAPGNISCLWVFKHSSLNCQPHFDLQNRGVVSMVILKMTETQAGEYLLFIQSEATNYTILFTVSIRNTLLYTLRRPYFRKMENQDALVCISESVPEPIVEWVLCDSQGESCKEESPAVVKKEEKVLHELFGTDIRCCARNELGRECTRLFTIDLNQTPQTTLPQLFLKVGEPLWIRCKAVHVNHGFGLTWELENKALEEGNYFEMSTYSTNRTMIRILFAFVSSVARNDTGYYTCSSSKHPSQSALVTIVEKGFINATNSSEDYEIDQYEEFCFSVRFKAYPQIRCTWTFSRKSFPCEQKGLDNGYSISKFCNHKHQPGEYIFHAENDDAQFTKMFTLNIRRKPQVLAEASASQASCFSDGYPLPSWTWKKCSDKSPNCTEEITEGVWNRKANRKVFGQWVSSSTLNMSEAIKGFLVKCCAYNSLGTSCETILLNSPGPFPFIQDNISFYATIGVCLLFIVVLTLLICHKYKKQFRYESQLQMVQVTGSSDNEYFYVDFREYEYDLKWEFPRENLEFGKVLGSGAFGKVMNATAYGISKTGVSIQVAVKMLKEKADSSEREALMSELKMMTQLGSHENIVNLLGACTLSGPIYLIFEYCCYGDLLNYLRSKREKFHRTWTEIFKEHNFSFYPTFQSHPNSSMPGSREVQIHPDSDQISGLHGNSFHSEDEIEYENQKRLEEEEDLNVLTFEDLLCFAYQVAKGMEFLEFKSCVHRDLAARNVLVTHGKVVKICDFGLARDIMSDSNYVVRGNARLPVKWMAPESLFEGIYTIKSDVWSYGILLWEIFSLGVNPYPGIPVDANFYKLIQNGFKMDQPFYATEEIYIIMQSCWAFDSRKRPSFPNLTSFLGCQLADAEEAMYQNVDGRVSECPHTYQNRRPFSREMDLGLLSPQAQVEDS

hJAK2 = biological target: T5, hJAK2 (Homo sapiens, UniProt O60674); experiment: Cerep LANCE kinase assay hJAK2 (S1 assay 33); assay type: biochemical; conditions: for hJAK2 LANCE IC50/EC50: assay number 33
T5 construct: purchased Cerep (LANCE kinase assay platform, contract assay)
T5 sequence (O60674 whole entry): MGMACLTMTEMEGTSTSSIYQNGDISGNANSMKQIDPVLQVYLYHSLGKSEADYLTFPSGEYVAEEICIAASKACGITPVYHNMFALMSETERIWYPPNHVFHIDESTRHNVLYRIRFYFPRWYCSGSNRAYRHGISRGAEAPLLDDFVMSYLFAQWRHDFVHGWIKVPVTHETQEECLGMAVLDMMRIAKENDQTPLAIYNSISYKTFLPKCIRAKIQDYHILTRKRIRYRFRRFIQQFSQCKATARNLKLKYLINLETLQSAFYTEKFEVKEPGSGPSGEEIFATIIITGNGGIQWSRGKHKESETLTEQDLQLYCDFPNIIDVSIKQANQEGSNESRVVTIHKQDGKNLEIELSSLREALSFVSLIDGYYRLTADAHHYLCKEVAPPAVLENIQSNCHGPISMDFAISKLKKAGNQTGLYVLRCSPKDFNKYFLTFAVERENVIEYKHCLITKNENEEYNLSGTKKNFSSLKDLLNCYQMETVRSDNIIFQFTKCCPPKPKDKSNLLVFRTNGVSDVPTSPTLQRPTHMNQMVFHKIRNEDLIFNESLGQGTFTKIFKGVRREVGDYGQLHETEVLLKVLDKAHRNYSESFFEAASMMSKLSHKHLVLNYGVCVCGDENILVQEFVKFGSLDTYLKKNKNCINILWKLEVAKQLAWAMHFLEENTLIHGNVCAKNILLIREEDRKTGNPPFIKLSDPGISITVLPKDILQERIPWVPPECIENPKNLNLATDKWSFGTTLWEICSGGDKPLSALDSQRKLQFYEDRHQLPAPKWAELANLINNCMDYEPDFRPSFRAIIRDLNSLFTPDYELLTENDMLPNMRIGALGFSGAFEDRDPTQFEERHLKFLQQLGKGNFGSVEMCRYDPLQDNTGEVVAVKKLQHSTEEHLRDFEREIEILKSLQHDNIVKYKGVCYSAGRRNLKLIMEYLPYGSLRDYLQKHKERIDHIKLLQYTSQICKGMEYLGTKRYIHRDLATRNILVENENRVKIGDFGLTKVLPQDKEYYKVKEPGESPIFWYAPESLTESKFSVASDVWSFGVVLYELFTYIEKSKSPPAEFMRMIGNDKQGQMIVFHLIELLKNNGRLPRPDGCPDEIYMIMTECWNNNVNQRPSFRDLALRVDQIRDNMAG

[3] = test system: endothelial tube formation in co-cultures of ECFCs and ADSCs treated with VEGF; experiment: cells; assay type: cell-based, human
[4] = test system: ECFC/ADSC co-culture cell nuclei number
DLD-1 = experiment: cells; assay type: cell-based; conditions: basal
[5] = test system: HCT116 cells treated with a GSK3β inhibitor; experiment: cells; assay type: cell-based; conditions: GSK3b inh pretreated
HT-29 = experiment: cells; assay type: cell-based; conditions: basal
RKO = experiment: cells; assay type: cell-based; conditions: basal
SW480 = experiment: cells; assay type: cell-based; conditions: basal
SNU-C1 = experiment: cells; assay type: cell-based; conditions: basal
Colo320 = experiment: cells; assay type: cell-based; conditions: basal
HCT116 = experiment: cells; assay type: cell-based; conditions: basal

T1 sequence (P49841 whole entry): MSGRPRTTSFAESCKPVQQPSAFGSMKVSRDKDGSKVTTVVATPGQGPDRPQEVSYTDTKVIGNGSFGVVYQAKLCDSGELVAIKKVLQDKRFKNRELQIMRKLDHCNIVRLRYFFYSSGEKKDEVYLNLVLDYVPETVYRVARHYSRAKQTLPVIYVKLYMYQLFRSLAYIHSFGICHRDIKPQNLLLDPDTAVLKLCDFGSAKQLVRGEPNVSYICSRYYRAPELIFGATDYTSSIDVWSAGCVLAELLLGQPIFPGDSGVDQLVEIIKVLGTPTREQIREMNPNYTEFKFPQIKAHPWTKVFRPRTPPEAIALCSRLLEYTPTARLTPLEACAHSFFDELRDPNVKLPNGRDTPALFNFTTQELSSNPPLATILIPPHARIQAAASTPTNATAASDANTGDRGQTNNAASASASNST

With COC(=O)[C@H]1[C@H]2C[C@@H]3c4[nH]c5cc(OC)ccc5c4CCN3C[C@H]2C[C@@H](OC(=O)/C=C/c2ccc(O)c(OC)c2)[C@@H]1OC [NCGC00253604-01] the “Hela CellCycMod PI 2N IC50/EC50” value (HeLa cells; assay number 14, 2N) was over 10 µM, the “Hela CellCycMod PI S Phase IC50/EC50” value (HeLa cells; assay number 15, S phase) was over 10 µM and the “Hela CellCycMod PI 4N IC50/EC50” value (HeLa cells; assay number 16, 4N) was over 10 µM. The “Hela CellCycMod PI MI IC50/EC50” value (HeLa cells; assay number 17, MI) was over 10 µM, the “Hela CellCycMod PI Cell Number IC50/EC50” value (HeLa cells; assay number 18, cell number) was over 10 µM and the “hGSK3b LANCE IC50/EC50” value (hGSK3b) was over 20 µM. For the same compound, the “hKDR LANCE IC50/EC50” value (hKDR) was over 20 µM, the “hp70S6K1 LANCE IC50/EC50” value (hp70S6K1 (RPS6KB1)) was over 20 µM and the “WntCondMedia_Alk Phos C2C12 IC50/EC50” value [1] was 10.4461 µM. The “WntCondMedia_bCatenin C2C12 IC50/EC50” value [2] was over 20 µM, the “hFLT3 LANCE IC50/EC50” value (hFLT3) was over 20 µM and the “hJAK2 LANCE IC50/EC50” value (hJAK2) was over 20 µM.
CCC1=C[C@@H]2CN(C1)Cc1c([nH]c3ccccc13)[C@@](C(=O)OC)(c1cc3c(cc1OC)N(C)[C@H]1[C@@](O)(C(=O)OC)[C@H](OC(C)=O)[C@]4(CC)C=CCN5CC[C@]31[C@@H]54)C2.O=C(O)C(O)C(O)C(=O)O.O=C(O)C(O)C(O)C(=O)O [NCGC00263568-01] was tested, and the “hGSK3b LANCE IC50/EC50” value (hGSK3b) was over 20 µM, the “hKDR LANCE IC50/EC50” value (hKDR) was over 20 µM and the “hp70S6K1 LANCE IC50/EC50” value (hp70S6K1 (RPS6KB1)) was over 20 µM. The “VEGF_ADSC\ECFC Angio CD31 TubeArea IC50/EC50” value [3] was 5.5 nM, the “VEGF_ADSC\ECFC Angio Hoechst NucArea IC50/EC50” value [4] was over 10 µM and the “WntCondMedia_Alk Phos C2C12 IC50/EC50” value [1] was 0.0101 µM. The “WntCondMedia_bCatenin C2C12 IC50/EC50” value [2] was 0.0089 µM, the “hFLT3 LANCE IC50/EC50” value (hFLT3) was over 20 µM and the “hJAK2 LANCE IC50/EC50” value (hJAK2) was over 20 µM.
With NC(N)=NN=C(/C=C/c1ccc([N+](=O)[O-])o1)/C=C/c1ccc([N+](=O)[O-])o1 [NCGC00181330-02] the “IC50/EC50, Hela CellCycMod PI 2N (assay number 14)” value (shortened to “IC50/EC50, Hela CellCycMod PI 2N”) (HeLa cells; 2N) was over 10 µM, the “IC50/EC50, Hela CellCycMod PI 4N (assay number 16)” value (from here on “IC50/EC50, Hela CellCycMod PI 4N”) (HeLa cells; 4N) was over 10 µM and the “IC50/EC50, Hela CellCycMod PI Cell Number (assay number 18)” value (“IC50/EC50 … (assay number 18)” for short) (HeLa cells) was over 10 µM. The “IC50/EC50, Hela CellCycMod PI MI (assay number 17)” value (from here on “IC50/EC50, Hela CellCycMod PI MI”) (HeLa cells; MI) was over 10 µM, the “IC50/EC50, Hela CellCycMod PI S Phase (assay number 15)” value (“IC50/EC50, Hela CellCycMod PI S Phase” for short) (HeLa cells) was over 10 µM and the “IC50/EC50, Basal_Viability ATP DLD-1 (assay number 23)” value (DLD-1) was over 20 µM. For the same compound, the “IC50/EC50, GSK3b inh pretreated_Viability ATP HCT116 (assay number 26)” value [5] was 0.0237 µM, the “IC50/EC50, Basal_Viability ATP HT-29 (assay number 28)” value (HT-29) was 3 nM and the “IC50/EC50, Basal_Viability ATP RKO (assay number 29)” value (RKO) was 0.0128 µM. The “IC50/EC50, Basal_Viability ATP SW480 (assay number 24)” value (SW480) was 7.6 nM, the “IC50/EC50, Basal_Viability ATP SNU-C1 (assay number 30)” value (SNU-C1) was 1.3539 µM and the “IC50/EC50, Basal_Viability ATP Colo 320 (assay number 27)” value (Colo320) was 3 nM. For the same compound, the “IC50/EC50, WntCondMedia_Alk Phos C2C12 (assay number 6)” value (from here on “IC50/EC50, WntCondMedia_Alk Phos C2C12”) [1] was 0.372 µM, the “IC50/EC50, Basal_Viability ATP HCT116 (assay number 25)” value (HCT116) was 0.1357 µM and the “IC50/EC50, WntCondMedia_bCatenin C2C12 (assay number 5)” value (“IC50/EC50, WntCondMedia_bCatenin C2C12” for short) [2] was over 20 µM.
For C[n+]1c2cc(N)ccc2cc2ccc(N)cc21 [NCGC00178831-03], the “IC50/EC50, Hela CellCycMod PI 2N” value (HeLa cells; 2N) was 3.3946 µM, the “IC50/EC50, Hela CellCycMod PI 4N” value (HeLa cells; 4N) was over 10 µM and the “IC50/EC50 … (assay number 18)” value (HeLa cells) was 0.4722 µM. The “IC50/EC50, Hela CellCycMod PI MI” value (HeLa cells; MI) was 2.194 µM, the “IC50/EC50, Hela CellCycMod PI S Phase” value (HeLa cells) was 1.9618 µM and the “IC50/EC50, hGSK3b LANCE (assay number 34)” value (hGSK3b) was over 20 µM. The “IC50/EC50, hKDR LANCE (assay number 32)” value (hKDR) was over 20 µM, the “IC50/EC50, hp70S6K1 LANCE (assay number 31)” value (hp70S6K1 (RPS6KB1)) was 6.57 µM and the “IC50/EC50, WntCondMedia_Alk Phos C2C12” value [1] was 1.5999 µM. The “IC50/EC50, WntCondMedia_bCatenin C2C12” value [2] was over 20 µM, the “IC50/EC50, hFLT3 LANCE (assay number 35)” value (hFLT3) was over 20 µM and the “IC50/EC50, hJAK2 LANCE (assay number 33)” value (hJAK2) was over 20 µM.
With CCc1nc(N)nc(N)c1-c1ccc(Cl)cc1 [NCGC00016256-17] the “IC50/EC50, Hela CellCycMod PI 2N” value (HeLa cells; 2N) was over 10 µM, the “IC50/EC50, Hela CellCycMod PI 4N” value (HeLa cells; 4N) was over 10 µM and the “IC50/EC50 … (assay number 18)” value (HeLa cells) was over 10 µM. For the same compound, the “IC50/EC50, Hela CellCycMod PI MI” value (HeLa cells; MI) was over 10 µM, the “IC50/EC50, Hela CellCycMod PI S Phase” value (HeLa cells) was over 10 µM and the “IC50/EC50, hGSK3b LANCE (assay number 34)” value (hGSK3b) was over 20 µM. The “IC50/EC50, hKDR LANCE (assay number 32)” value (hKDR) was over 20 µM, the “IC50/EC50, hp70S6K1 LANCE (assay number 31)” value (hp70S6K1 (RPS6KB1)) was over 20 µM and the “IC50/EC50, WntCondMedia_Alk Phos C2C12” value [1] was 0.0677 µM. The “IC50/EC50, WntCondMedia_bCatenin C2C12” value [2] was 0.86 µM, the “IC50/EC50, hFLT3 LANCE (assay number 35)” value (hFLT3) was over 20 µM and the “IC50/EC50, hJAK2 LANCE (assay number 33)” value (hJAK2) was over 20 µM.

Reference: PMC4503722, “Novel Phenotypic Outcomes Identified for a Public Collection of Approved Drugs from a Publicly Accessible Panel of Assays” (PLoS ONE, 2015)
